Experimental findings from patent publication US20160002267A1, “BENZYL-SUBSTITUTED PYRAZOLOPYRIDINES AND USE THEREOF” (BAYER PHARMA AKTIENGESELLSCHAFT, priority 2013, published 2016) are described below.

In this assay the target is T1, guanylate cyclase (Rattus norvegicus, UniProt P19686+P20595).
T1 construct: expressed in transfected cells; host or cells: recombinant reporter cell line
T1 sequence (P20595 1-619): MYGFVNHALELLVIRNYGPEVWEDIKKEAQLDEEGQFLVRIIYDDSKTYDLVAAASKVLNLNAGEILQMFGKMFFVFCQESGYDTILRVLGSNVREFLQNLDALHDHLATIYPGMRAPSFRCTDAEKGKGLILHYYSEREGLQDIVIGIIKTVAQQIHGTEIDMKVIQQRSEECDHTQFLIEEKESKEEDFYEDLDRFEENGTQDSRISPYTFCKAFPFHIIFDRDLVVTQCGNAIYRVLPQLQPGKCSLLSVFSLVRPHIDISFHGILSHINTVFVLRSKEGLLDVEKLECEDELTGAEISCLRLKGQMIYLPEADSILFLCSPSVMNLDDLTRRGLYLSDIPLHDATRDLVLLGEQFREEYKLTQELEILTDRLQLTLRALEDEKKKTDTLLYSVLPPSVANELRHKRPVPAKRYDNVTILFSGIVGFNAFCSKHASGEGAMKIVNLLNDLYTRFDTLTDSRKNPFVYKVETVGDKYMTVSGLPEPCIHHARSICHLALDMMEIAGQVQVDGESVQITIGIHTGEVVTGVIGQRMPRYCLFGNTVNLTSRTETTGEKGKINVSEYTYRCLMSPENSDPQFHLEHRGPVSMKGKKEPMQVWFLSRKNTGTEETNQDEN
T1 sequence (P19686 1-690): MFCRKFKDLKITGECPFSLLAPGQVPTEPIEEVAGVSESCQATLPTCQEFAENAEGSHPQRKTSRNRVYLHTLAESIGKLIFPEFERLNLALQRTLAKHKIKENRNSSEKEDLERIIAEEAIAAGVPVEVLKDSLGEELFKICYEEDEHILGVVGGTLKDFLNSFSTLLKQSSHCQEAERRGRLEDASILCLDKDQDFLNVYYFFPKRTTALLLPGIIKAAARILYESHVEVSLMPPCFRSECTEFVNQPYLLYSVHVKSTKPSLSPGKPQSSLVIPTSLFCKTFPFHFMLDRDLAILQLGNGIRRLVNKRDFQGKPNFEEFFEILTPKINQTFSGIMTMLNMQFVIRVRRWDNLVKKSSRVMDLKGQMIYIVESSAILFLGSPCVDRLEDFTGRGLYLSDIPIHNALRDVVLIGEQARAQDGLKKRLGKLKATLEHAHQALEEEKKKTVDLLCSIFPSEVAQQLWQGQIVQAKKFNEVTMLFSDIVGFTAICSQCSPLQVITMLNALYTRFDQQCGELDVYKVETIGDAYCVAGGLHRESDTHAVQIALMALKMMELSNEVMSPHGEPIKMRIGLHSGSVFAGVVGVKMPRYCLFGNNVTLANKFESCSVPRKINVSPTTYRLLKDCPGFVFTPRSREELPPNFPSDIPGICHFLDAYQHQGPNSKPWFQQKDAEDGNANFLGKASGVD
Briefly: Effect on a recombinant guanylate cyclase reporter cell line. Format: cell-based. How it is done: The cellular activity of the compounds according to the invention is determined using a recombinant guanylate cyclase reporter cell line, as described in F. Wunder et al., Anal. Biochem. 339, 104-112 (2005).

As for `CC1(C(F)(F)F)C(=O)Nc2nc(-c3nn(Cc4ccccc4F)c4ncc(F)cc34)nc(NCCC(F)(F)F)c21` (single isomer, unassigned) [Example 1-2, 2-[5-Fluoro-1-(2-fluorobenzyl)-1H-pyrazolo[3,4-b]pyridin-3-yl]-5-methyl-5-(trifluoromethyl)-4-[(3,3,3-trifluoropropyl)amino]-5,7-dihydro-6H-pyrrolo[2,3-d]pyrimidin-6-one], the “MEC (minimum effective concentration)” value is 0.3 µM.
